Legend:
[1] = target: T1, MAPK8 (JNK1) (Homo sapiens, UniProt P45983); test: Z'-LYTE kinase selectivity assay MAPK8; assay type: biochemical
T1 construct: purchased Life Technologies PV 3593
Excerpt: (§1) In order to compare the kinase selectivity of compounds (I) according to the invention with known prior art compounds the commercially provided SelectScreen® Kinase Profiling Service (Z′-LYTE®) was used (Life Technologies GmbH, Darmstadt, Germany) to investigate the ability of the compounds to inhibit a number of different, representatively selected human kinases. Further details regarding this service are available on the Life Technologies website at
(§2) The Z′-LYTE® biochemical assay employs a fluorescence-based, coupled-enzyme format and is based on the differential sensitivity of phosphorylated and non-phosphorylated peptides to proteolytic cleavage. The peptide substrate is labeled with two fluorophores—one at each end—that make up a FRET pair.
(§3) In the primary reaction, the kinase transfers the gamma-phosphate of ATP to a single tyrosine, serine or threonine residue in a synthetic FRET-peptide. In the secondary reaction, a site-specific protease recognizes and cleaves non-phosphorylated FRET-peptides. Phosphorylation of FRET-peptides suppresses cleavage by the Development Reagent. […] A ratiometric method, which calculates the ratio (the Emission Ratio) of donor emission to acceptor emission after excitation of the donor fluorophore at 400 nm, is used to quantitate reaction progress, as shown in the equation below. […]

[2] = target: T2, MAPK9 (JNK2) (Homo sapiens, UniProt P45984); test: Z'-LYTE kinase selectivity assay MAPK9; assay type: biochemical
T2 construct: purchased Life Technologies PV 4018
T2 sequence (P45984 whole entry): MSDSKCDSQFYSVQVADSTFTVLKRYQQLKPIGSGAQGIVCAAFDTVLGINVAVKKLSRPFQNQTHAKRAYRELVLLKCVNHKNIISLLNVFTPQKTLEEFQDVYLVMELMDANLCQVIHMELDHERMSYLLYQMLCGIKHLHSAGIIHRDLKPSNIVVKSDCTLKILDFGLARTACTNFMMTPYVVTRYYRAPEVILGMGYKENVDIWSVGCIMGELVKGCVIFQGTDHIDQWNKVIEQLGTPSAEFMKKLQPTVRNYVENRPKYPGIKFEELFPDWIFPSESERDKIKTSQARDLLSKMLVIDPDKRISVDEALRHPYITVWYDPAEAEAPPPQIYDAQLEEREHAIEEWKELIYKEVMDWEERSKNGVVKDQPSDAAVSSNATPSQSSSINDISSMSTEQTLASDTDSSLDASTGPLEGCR
Excerpt: as §1, §2, §3

T1 sequence (P45983 whole entry): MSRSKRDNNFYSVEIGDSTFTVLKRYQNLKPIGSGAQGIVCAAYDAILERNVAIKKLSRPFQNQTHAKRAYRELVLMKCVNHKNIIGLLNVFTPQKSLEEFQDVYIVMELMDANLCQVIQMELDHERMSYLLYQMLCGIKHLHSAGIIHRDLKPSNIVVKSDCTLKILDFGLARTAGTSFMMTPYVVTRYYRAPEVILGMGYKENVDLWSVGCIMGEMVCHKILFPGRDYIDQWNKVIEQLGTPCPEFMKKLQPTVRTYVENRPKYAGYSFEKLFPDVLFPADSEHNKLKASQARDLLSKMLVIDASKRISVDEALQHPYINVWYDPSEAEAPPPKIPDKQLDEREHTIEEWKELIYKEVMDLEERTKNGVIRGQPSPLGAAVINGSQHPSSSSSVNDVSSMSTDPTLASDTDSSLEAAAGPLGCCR

inhibition at 1 µM [1]: 12%
inhibition at 1 µM [2]: 7%
Structure (SMILES): COCCN1CCN(CCn2ccc(Nc3ncc4c(n3)-c3c(nn(C)c3-c3ccccc3)C[C@H]4C)n2)CC1 [Compound I-11]

Source: US10414769B2, “5,8-dimethyl-9-phenyl-5,8-dihydro-6H-pyrazolo[3,4-h]quinazolin-2-yl)-(1H-pyrazol-3-yl)-amines as IGF-1R/IR inhibitors” (Boehringer Ingelheim International GmbH, priority 2015, dated 2019)
